Experiments:
Assay type in all cases: cell-based
PANC-1 cells = assay: PANC-1 cytotoxicity (Cell Tox green assay); conditions: 5 and 20 μM, 24 hours
Procedure: Analysis of Cell Proliferation. For PANC-1 cell proliferation and cell cytotoxicity measurements, […] were seeded in 96 well-plates in 100 μL of DMEM medium. Cells were incubated for 24 hours at 37° C. with 3 different SOCE inhibitors (GSK-7975-A, SKF-93365 and 6αa) at 2 different concentrations (5 and 20 μM) compared to DMSO and untreated cells. Cell proliferation was evaluated using the Cell Titer kit proliferation assay (Promega). Cytotoxicity was evaluated using the Cell Tox green cytotoxicity assay (Promega). All the kits were used following manufacturer recommendations and using a plate reader.

JOK cells [1] = assay: JOK cell cycle analysis (PI staining, flow cytometry)
Procedure: Cell Cycle Analysis. JOK cells were incubated with or without test compounds (GSK-7975-A, SKF-93365 and 6αa) for 48 hours and then washed with cold PBS and fixed with 70% ethanol for 30 minutes at room temperature. Cell cycle was analyzed using propidium iodide (PI). Cell-cycle distribution was determined by PI-staining using flow cytometry and analyzed by Kaluza 1.3.

JOK cells [2] = assay: JOK cell proliferation assay
Procedure: Cell Proliferation Assays. Cultured JOK cells were seeded in 96-well culture plates with or without inhibitors. After 48 hours, cell proliferation was assessed using WST-8 assay (Sigma Aldrich). The absorbance was read at 450 nm on a plate reader.

COc1ccc(CCOc2ccc(CCn3cnc4ccccc43)cc2)cc1 [6αa DAD 3-473, 1-[4-(4-Methoxyphenethoxy)phenethyl]-1H-benzo[d]imidazole]
cytotoxicity in cancer PANC-1 cells (PANC-1 cells): induces cytotoxicity
cell cycle (JOK cells [1]): affects cell cycle
JOK proliferation (JOK cells [2]): significantly reduces

From US12686664B2, “SOCE inhibitors and therapeutic uses thereof” (Institut National de la Santé et de la Recherche Médicale …, priority 2020, dated 2026)
